Assay results as given in patent EP0338532A2, “N-alkylamino derivates of aromatic, tricyclic compounds in the treatment of drug-resistant protozoal infections” (priority 1988, dated 1989).

Key:
P. falciparum (W2) = format: cell-based, Plasmodium falciparum
Procedure: (§1) P. falciparum (clone D6, chloroquine-sensitive; strain FCR3, chloroquine-resistant; and clone W2, multidrug-resistant) was grown in vitro by the method of Trager and Jensen, (1976) Science 193, 673-675. • Figure 1 illustrates the effect of desipramine on the inhibition of parasite growth. […] Isobologram analysis was carried out according to the method of Martin, et al., (1987) Science 235, 899-901 and Berenbaum, (1978) Journal of Infectious Diseases 137, 122-130. […] The X-axis is the IC₅₀ (concentration of drug which inhibits hypoxanthine incorporation by 50%) of chloroquine in the absence or presence of desipramine while the Y-axis is the IC₅₀ for desipramine in the absence or presence of chloroquine. […] Dose-response curves and IC₅₀'s for chloroquine were determined either in the absence of desipramine or in the presence of a fixed concentration of desipramine ranging from 50 ng desipramine/ml up to 500 ng desipramine/ml. […] Clinically achievable plasma concentrations of desipramine in depressed patients are in the range of 50 - 200 ng/ml. Desipramine (500 ng/ml) lowered the IC₅₀ and IC₉₀ for chloroquine by 10-fold. An IC₅₀ for a chloroquine-sensitive P. falciparum strain would be approximately 5 ng/ml. […]

[1] = depressed patients; cited from earlier work
P. falciparum (FCR3) = assay: [3H]-hypoxanthine incorporation, parasite growth inhibition (chloroquine-resistant strain FCR3); format: cell-based, Plasmodium falciparum
Procedure: P. falciparum (clone D6, chloroquine-sensitive; strain FCR3, chloroquine-resistant; and clone W2, multidrug-resistant) was grown in vitro by the method of Trager and Jensen, (1976) Science 193, 673-675. • Figure 1 illustrates the effect of desipramine on the inhibition of parasite growth. […] Isobologram analysis was carried out according to the method of Martin, et al., (1987) Science 235, 899-901 and Berenbaum, (1978) Journal of Infectious Diseases 137, 122-130. […] The X-axis is the IC₅₀ (concentration of drug which inhibits hypoxanthine incorporation by 50%) of chloroquine in the absence or presence of desipramine while the Y-axis is the IC₅₀ for desipramine in the absence or presence of chloroquine. […] Dose-response curves and IC₅₀'s for chloroquine were determined either in the absence of desipramine or in the presence of a fixed concentration of desipramine ranging from 50 ng desipramine/ml up to 500 ng desipramine/ml. […] Clinically achievable plasma concentrations of desipramine in depressed patients are in the range of 50 - 200 ng/ml. Desipramine (500 ng/ml) lowered the IC₅₀ and IC₉₀ for chloroquine by 10-fold. An IC₅₀ for a chloroquine-sensitive P. falciparum strain would be approximately 5 ng/ml. Therefore in the presence of clinically relevant concentrations of desipramine, the chloroquine-resistant P. falciparum strain is as sensitive to chloroquine as is the "sensitive" strain. • Figure 4 illustrates the ability of desipramine to enhance the potency of chloroquine against P. falciparum (W2). The experiment is identical to that of Figure 3 but a different strain of P. falciparum was used. […] The IC₅₀ and IC₉₀ for chloroquine are lowered by a factor of approximately 10. […] The anti-psycotic, chloropromazine, was substituted for desipramine in an experiment similar to that in Figure 2. • Figure 7. […] Uptake of [3H]-chloroquine was followed in clone D6 (chloroquine susceptible, ·) and in clone W2 (multidrug-resistant, o) in the absence or presence of desipramine.

[2] = tested on: clone W2 (multidrug-resistant); assay: Uptake of [3H]-chloroquine by parasites (clone W2); format: cell-based, P. falciparum; conditions: Figure 7; drug-resistant parasites, presence vs absence of desipramine
Procedure: as §1

[3] = tested on: chloroquine-susceptible clone D6 of P. falciparum; assay: [3H]-hypoxanthine incorporation, parasite growth inhibition (chloroquine-susceptible clone D6); format: cell-based, Plasmodium falciparum; conditions: Figure 5, experiment similar to Figures 3 and 4
Procedure: as §1

[4] = tested on: chloroquine-sensitive P. falciparum strain; conditions: stated as 'would be approximately'; cited from earlier work
[5] = Figure 3, desipramine 500 ng/ml, FCR3

CNCCCN1c2ccccc2CCc2ccccc21 [desipramine, Desipramine]
effects on P. falciparum when desipramine was added alone (P. falciparum (W2); Figure 4, at the desipramine concentrations used, without chloroquine): only slight effects | sensitivity of the strain to desipramine (P. falciparum (W2); W2 compared with FCR3): more sensitive | Clinically achievable plasma concentrations [1]: 50 to 200 ng/mL | lowering of the IC50 for chloroquine (P. falciparum (FCR3); [5]): 10 fold | lowering of the IC90 for chloroquine (P. falciparum (FCR3); [5]): 10 fold | accumulation of chloroquine by parasites [2]: increases the accumulation of chloroquine | change of the response to chloroquine [3]: does not change the response

CN(C)CCCN1c2ccccc2Sc2ccc(Cl)cc21 [chloropromazine]
synergism of chloropromazine and chloroquine (isobologram) (P. falciparum (FCR3); Figure 6, experiment similar to Figure 2, combination with chloroquine): synergism

CCN(CC)CCCC(C)Nc1ccnc2cc(Cl)ccc12 (stereo not drawn) [chloroquine]
IC50 [4]: approximately 5 ng/ml
